Data on 13 compounds can be found in patent US8221745B2 (Velico Medical, Inc., priority 2004, dated 2012).

For experiment [1], the system named is differentiated monocytic cell line THP-1. Nature of the experiment: In vitro phagocytic assay: ingestion of chilled or room temperature human platelets by THP-1 cells. As to conditions: for inhibitory effect on chilled platelet phagocytosis (in words): phagocytes incubated in monosaccharide solutions at various concentrations; for inhibitory effect on RT platelet phagocytosis (in words): room temperature platelets. The experiment is classed as cell-based. The method, then: CR3 expression was monitored by flow cytometry using a PE-conjugated anti-human CD11b/Mac-1 mAb. Undifferentiated or differentiated THP-1 cells (2×10^6/ml) were plated onto 24-well plates and allowed to adhere for 45 minutes at 37° C. The adherent undifferentiated or differentiated macrophages were activated by the addition of 15 ng/ml PMA for 15 min. CM-range-labeled, chilled or room temperature platelets (10^7/well), previously subjected to different treatments were added to the undifferentiated or differentiated phagocytes in Ca^2+- and Mg^2+-containing HBSS and incubated for 30 min at 37° C. Following the incubation period, the phagocyte monolayer was washed with HBSS for 3 times, and adherent platelets were removed by treatment with 0.05% trypsin/0.53 mM EDTA in HBSS at 37° C. for 5 min followed by 5 mM EDTA at 4° C. to detach the macrophages for flow cytometric analysis of adhesion or ingestion of platelets (Brown et al., 2000). […] CM-Orange-labeled platelets incubated with macrophages were resolved from the phagocytes according to their forward and side scatter properties. The macrophages were gated, 10,000 events acquired for each sample, and data analyzed with CELLQuest software (Becton Dickenson).
To analyze the effects of monosaccharides on platelet phagocytosis, phagocytes (differentiated monocytic cell line THP-1) were incubated in monosaccharide solutions at various concentrations, and the chilled or room temperature platelets were added. Values in the Figures are means±SD of 3-5 experiments comparing percentages of orange-positive monocytes containing ingested platelets incubated with RT or chilled platelets).

Another experiment relates to chilled human platelets. Nature of the experiment: FITC-WGA / S-WGA lectin binding to platelets by flow cytometry. It is filed as cell-based. To be noted: chilled or room temperature human platelets; control nucleotides.
Experiment [2] deals with human platelets. Nature of the experiment: RCA I lectin binding to platelets by flow cytometry. To be noted: chilled or room temperature human platelets; control nucleotides. It is filed as cell-based.
Experiment [3] has as its system human platelets. Briefly: Immunolabeling and flow cytometry of chilled versus room temperature platelets (human). It is filed as cell-based. To be noted: mean±SD, n=3−4. The method, then:
(§1) Washed murine or human platelets (2×10^6) were analyzed for surface expression of CD62P, CD61, or surface bound IgM and IgG after chilling or room temperature storage by staining with fluorophore-conjugated Abs (5 μg/ml) for 10 min at 37° C. Phosphatidylserine exposure by chilled or room temperature platelets was determined by resuspending 5 μl of platelets in 400 μl of HBSS containing 10 mM Ca^2+ with 10 μg/ml of FITC-conjugated annexin-V. As a positive control for PS exposure, platelet suspensions were stimulated with 1 μM A23187. Fibrinogen binding was determined by the addition of Oregon Green-fibrinogen for 20 min at room temperature. All platelet samples were analyzed immediately by flow cytometry. Platelets were gated by forward and side scatter characteristics.
(§2) The binding of fluorescently labeled antibodies or ligands against various receptors on chilled-rewarmed or room temperature human and murine platelets was measured by flow cytometry. The data are expressed as the ratio between the mean fluorophore bound to the surface of chilled versus room temperature platelets (mean±SD, n=3−4).

A further experiment deals with Murine platelets. Briefly: Immunolabeling and flow cytometry of chilled versus room temperature platelets (murine). The experiment is classed as cell-based. As to conditions: mean±SD, n=3−4. Here is the method: as §1, §2
For experiment [4] the following is noted: mice lacking 2,3Sialyltransferase IV; cited from earlier work.
The subject of experiment [5] is platelet membrane glycoproteins. Nature of the experiment: Incorporation of 14C-labeled sugars into endogenous platelet glycoproteins (SDS-PAGE, autoradiography). It is filed as biochemical, human. To be noted: intact non-lysed platelets.
Procedure: Transfer of sialic acids to endogenous glycoproteins by platelet sialyltransferase activity was tested in two ways. […] Intact platelets suspended in buffer (140 mM NaCl, 3 mM KCl, 0.5 mM MgCl2, 5 mM NaHCO3, 10 mM Hepes, pH 7.4) were used to assess the capacity of surface exposed sialyltransferase activity to transfer to platelet membrane glycoproteins. […] Thus, it was possible to use three different glycan modification strategies: addition of 1) UDP-[^14C]-galactose, 2) UDP-[^14C]-galactose and CMP-[^14C]-sialic acid, and 3) CMP-[^14C]-sialic acid alone. The incorporation of radioactive sugar nucleotides were monitored by SDS-PAGE chromatography followed by autoradiography.
The incorporation of radioactive carbohydrate sialic acid in endogenous platelet acceptor proteins was evaluated by incubating either detergent lysed platelets or non-lysed platelets with CMP-[^14C]-sialic. The incorporation ^14C-sialic acid was monitored by SDS-PAGE chromatography of the glycosylation mixture followed by autoradiography. Briefly, human apheresis platelets were washed and resuspended in resuspension buffer (40 mM NaCl, 3 mM KCl, 0.5 mM MgCl2, 5 mM NaHCO3, 10 mM Hepes, pH 7.4) and split in two fractions. One fraction was incubated with addition of CMP-[^14C]-sialic acid at 37° C. for 60 minutes. […]

Procedure for chilled human platelets: We then investigated whether wheat germ agglutinin (WGA), a lectin with specificity towards the terminal sugar (GlcNAc), binds more effectively to chilled platelets than to room temperature platelets. Washed, chilled or room temperature platelets were incubated with 2 μg/ml of FITC coupled WGA or FITC coupled succinyl-WGA for 30 min at room temperature and analyzed by flow cytometry.
To analyze whether removal of GlcNAc residues reduces the binding of WGA to the platelet surface, chilled and room temperature washed human platelets were treated with 100 U/ml β-Hex for 30 min at 37° C.

As for `O=C[C@H](O)[C@@H](O)[C@@H](O)[C@H](O)CO` [D-(+)-galactose], the “% inhibition phagocytosis” value in experiment [1] (chilled platelets, monosaccharide 100 mM) is recorded as “did not significantly inhibit”.

Take `O=C[C@@H](O)[C@@H](O)[C@H](O)[C@H](O)CO` [D-(+)-mannose]: the “inhibitory effect on chilled platelet phagocytosis (in words)” value in experiment [1] (chilled platelets) is given as “no inhibitory effect”. Besides, in experiment [1], the “inhibitory effect on RT platelet phagocytosis (in words)” value is on record as “no inhibitory effect”.

Take `CC(=O)N[C@H]1C(O)O[C@H](CO)[C@@H](O)[C@@H]1O` (stereo partly drawn) [GlcNac, N-acetyl-D-glucosamine]: the “inhibition of chilled platelet phagocytosis (in words)” value in experiment [1] (25 to 200 mM) is “significantly inhibited”.

For `CO[C@H]1O[C@H](CO)[C@@H](O)[C@H](O)[C@H]1O` [Methyl-α-D-glucopyranoside], the “inhibitory effect on chilled platelet phagocytosis (in words)” value in experiment [1] (chilled platelets) was “did not have an inhibitory effect”.

Turning to `CO[C@H]1O[C@H](CO)[C@@H](O)[C@H](O)[C@@H]1O` [Methyl-α-D-mannopyranoside], in experiment [1] (chilled platelets), the “inhibitory effect on chilled platelet phagocytosis (in words)” value is given as “no inhibitory effect”. Moreover, the “inhibitory effect on RT platelet phagocytosis (in words)” value in experiment [1] is reported as “no inhibitory effect”.

For the compound `COC1OC(CO)C(O)C(O)C1O` [Methyl-β-D-gludopyranoside], in experiment [1] (chilled platelets), the “inhibitory effect on chilled platelet phagocytosis (in words)” value was “inhibited phagocytosis in a dose-dependent manner”.

As for `CO[C@@H]1O[C@H](CO)[C@@H](O)[C@H](O)[C@@H]1O` [Methyl-β-D-mannopyranoside], the “inhibitory effect on chilled platelet phagocytosis (in words)” value in experiment [1] (chilled platelets) was “no inhibitory effect”. In experiment [1], the “inhibitory effect on RT platelet phagocytosis (in words)” value is on record as “no inhibitory effect”.

Regarding `O=c1ccn([C@@H]2O[C@H](COP(=O)(O)OP(=O)(O)O)[C@@H](O)[C@H]2O)c(=O)[nH]1` [UDP], in the experiment on chilled human platelets, the “effect on S-WGA binding” value is listed as “no effect”. The “effect on RCA I binding” value in the experiment on human platelets [2] is on record as “no effect”.

As for `CC(=O)N[C@@H]1[C@@H](O)[C@H](O)[C@@H](CO)O[C@H]1O` [β-GlcNac], the “inhibition of the phagocytosis of chilled platelets” value in experiment [1] (10 μM) is on record as 80%. Besides, the “inhibitory effect on chilled platelet phagocytosis (in words)” value in experiment [1] (chilled platelets) is “strongly inhibited”.

Consider “annexin V: FITC-conjugated annexin-V, ligand for phosphatidylserine exposure”, for which the “Binding ratio 4° C.:22° C.” value in the experiment on human platelets [3] was 0.95 ± 0.09; with Murine platelets it was 1.04 ± 0.02.

With asialofetuin, the platelet count result in experiment [4] was “corrects the platelet count”.

“cytidine monophospho-N-acetylneuraminic acid [CMP-sialic acid]”: the “incorporation of radioactive sugar into platelet membrane glycoproteins” value in experiment [5] is recorded as “high level of incorporation”.

For fibrinogen, the “Binding ratio 4° C.:22° C.” value stood at 1.05 ± 0.10 with human platelets [3] and 1.06 ± 0.06 in the experiment on Murine platelets.
